From US10611740B2, “Aryl dihydro-2H-benzo[b][1,4]oxazine sulfonamide and related compounds for use as agonists of RORγ and the treatment of disease” (Lycera Corporation, priority 2015, dated 2020)
pEC50: −log10 of the molar value.

Experiments:
[1] = molecular target: T1, RORγ-LBD (Homo sapiens, UniProt P51449); assay: RORγ-Ligand Binding Domain (LBD) TR-FRET Assay; type: biochemical;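 for TR-FRET Assay Max Response: 665/615 nm ratio relative to signal without ursolic acid or compound set at 100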
T1 construct: made in house; host or cells: SF9 cells (baculovirus)
T1 sequence (P51449 269-508 limits assumed): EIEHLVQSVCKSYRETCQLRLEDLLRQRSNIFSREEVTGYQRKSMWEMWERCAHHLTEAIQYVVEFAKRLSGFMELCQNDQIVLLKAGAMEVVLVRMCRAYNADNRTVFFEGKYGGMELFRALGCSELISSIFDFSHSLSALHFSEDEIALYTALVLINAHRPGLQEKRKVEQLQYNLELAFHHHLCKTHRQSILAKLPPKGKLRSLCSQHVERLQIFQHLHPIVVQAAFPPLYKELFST
In short: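 This TR-FRET coactivator assay pairs baculovirus-expressed His-RORγ-LBD (~3 nM final) with biotin-SRC1 LXXLL peptide at 200 nM final in pH 7.0 Tris/KCl/EDTA/DTT/BSA buffer.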

[2] = molecular target: T2, Gal4-RORγ-LBD (Homo sapiens, UniProt P51449); assay: Gal4-RORγ Luciferase Reporter Assay in HEK-293T Cells; type: cell-based; conditions: HEK-293 cells, 2 μM ursolic acid
T2 construct: expressed in transfected cells; host or cells: HEK-293 cells (pcDNA3.1neo plasmid)
T2 sequence (P51449 269-508 limits assumed): T1 sequence (P51449 269-508 limits assumed)
In short: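 Luminescence read-out (One-Glo, 10 min RT) after overnight compound exposure at 37 °C in HEK-293 cells carrying Gal4-RORγ-LBD plus a Gal4-luciferase reporter, in the presence of 2 μM ursolic acid. Max Response is the upper plateau from a 4-parameter logistic fit, normalized to untreated signal = 100.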

Compound | pEC50 [1] | TR-FRET Assay Max Response [1] | pEC50 [2] | Gal4-RORγ Assay Max Response [2]
C[C@]1(C(=O)O)C[C@H](C[C@H]2CN(S(=O)(=O)c3cccc(C(F)(F)F)c3)c3cc(-c4cccc(C(F)(F)F)n4)ccc3O2)C1 [Compound 60N, (1S,3r)-1-methyl-3-(((S)-4-((3-(trifluoromethyl)phenyl)-sulfonyl)-6-(6-(trifluoro-methyl)pyridin-2-yl)-3,4-dihydro-2H-benzo[b][1,4]-oxazin-2-yl)methyl)cyclobutane-1-carboxylic acid] | > 6.30 | ** (The symbol “**” indicates a value in the range of greater than 90 to 150) | > 6.30 | ** (The symbol “**” indicates a value in the range of greater than 90 to 150)
CC1(C(=O)O)CC(C[C@H]2CN(S(=O)(=O)c3cccc(C(F)(F)F)c3)c3cc(-c4cccc(C(F)(F)F)n4)ccc3O2)C1 (stereo partly drawn) [Compound 60O, (1R,3s)-1-methyl-3-(((S)-4-((3-(trifluoromethyl)phenyl)-sulfonyl)-6-(6-(trifluoro-methyl)pyridin-2-yl)-3,4-dihydro-2H-benzo[b][1,4]-oxazin-2-yl)methyl)cyclobutane-1-carboxylic acid] | > 6.30 | *** (The symbol “***” indicates a value in the range of greater than 150 to 200) | > 6.30 | ** (The symbol “**” indicates a value in the range of greater than 90 to 150)
CC(=O)N1CC(C[C@H]2CN(S(=O)(=O)c3cccc(C(F)(F)F)c3)c3cc(-c4cc(F)cc(OC(F)F)c4)ccc3O2)C1 [Compound 61, (S)-1-(3-((6-(3-(difluoromethoxy)-5-fluorophenyl)-4-((3-(trifluoromethyl)phenyl)sulfonyl)-3,4-dihydro-2H-benzo[b][1,4]oxazin-2-yl)methyl)azetidin-1-yl)ethan-1-one] | > 6.30 | *** (The symbol “***” indicates a value in the range of greater than 150 to 200) | > 6.30 | ** (The symbol “**” indicates a value in the range of greater than 90 to 150)
CC(=O)N1CC(C[C@H]2CN(S(=O)(=O)c3cccc(C(F)(F)F)c3)c3cc(-c4cc(F)ccc4F)ccc3O2)C1 [Compound 62, (S)-1-(3-((6-(2,5-difluorophenyl)-4-((3-(trifluoromethyl)phenyl)sulfonyl)-3,4-dihydro-2H-benzo[b][1,4]oxazin-2-yl)methyl)azetidin-1-yl)ethan-1-one] | > 6.30 | ** (The symbol “**” indicates a value in the range of greater than 90 to 150) | > 6.30 | ** (The symbol “**” indicates a value in the range of greater than 90 to 150)
O=C(O)[C@]1(C[C@H]2CN(S(=O)(=O)c3cccc(C(F)(F)F)c3)c3cc(-c4cc(F)cc(OC(F)F)c4)ccc3O2)CCNC1=O [Compound 73, (S)-3-(((S)-6-(3-(difluoromethoxy)-5-fluorophenyl)-4-((3-(trifluoromethyl)phenyl)sulfonyl)-3,4-dihydro-2H-benzo[b][1,4]oxazin-2-yl)methyl)-2-oxopyrrolidine-3-carboxylic acid] | > 6.30 | *** (The symbol “***” indicates a value in the range of greater than 150 to 200) | > 6.30 | ** (The symbol “**” indicates a value in the range of greater than 90 to 150)
O=C(O)[C@@]1(C[C@H]2CN(S(=O)(=O)c3cccc(C(F)(F)F)c3)c3cc(-c4cc(F)cc(OC(F)F)c4)ccc3O2)CCNC1=O [Compound 74, (R)-3-(((S)-6-(3-(difluoromethoxy)-5-fluorophenyl)-4-((3-(trifluoromethyl)phenyl)sulfonyl)-3,4-dihydro-2H-benzo[b][1,4]oxazin-2-yl)methyl)-2-oxopyrrolidine-3-carboxylic acid] | > 6.30 | ** (The symbol “**” indicates a value in the range of greater than 90 to 150) | > 6.30 | ** (The symbol “**” indicates a value in the range of greater than 90 to 150)
O=C1CC[C@@](C[C@H]2CN(S(=O)(=O)c3cccc(C(F)(F)F)c3)c3cc(-c4cc(F)ccc4F)ccc3O2)(C(=O)O)N1 [Compound 75, (R)-2-(((S)-6-(2,5-difluorophenyl)-4-((3-(trifluoromethyl)phenyl)sulfonyl)-3,4-dihydro-2H-benzo[b][1,4]oxazin-2-yl)methyl)-5-oxopyrrolidine-2-carboxylic acid] | > 6.30 | ** (The symbol “**” indicates a value in the range of greater than 90 to 150) | 5.00 to 5.30 | *** (The symbol “***” indicates a value in the range of greater than 150 to 200)
O=C(O)[C@]1(C[C@H]2CN(S(=O)(=O)c3cccc(C(F)(F)F)c3)c3cc(-c4cc(F)ccc4F)ccc3O2)CCNC1=O [Compound 77A, (S)-3-(((S)-6-(2,5-difluorophenyl)-4-((3-(trifluoromethyl)phenyl)-sulfonyl)-3,4-dihydro-2H-benzo[b][1,4]oxazin-2-yl)methyl) 2-oxopyrrolidine-3-carboxylic acid] | > 6.30 | ** (The symbol “**” indicates a value in the range of greater than 90 to 150) | – | **** (The symbol “****” indicates a value greater than 200)
O=C(O)[C@@]1(C[C@H]2CN(S(=O)(=O)c3cccc(C(F)(F)F)c3)c3cc(-c4cc(F)ccc4F)ccc3O2)CCNC1=O [Compound 77B, (R)-3-(((S)-6-(2,5-difluorophenyl)-4-((3-(trifluoromethyl)phenyl)-sulfonyl)-3,4-dihydro-2H-benzo[b][1,4]oxazin-2-yl)methyl)-2-oxopyrrolidine-3-carboxylic acid] | > 6.30 | *** (The symbol “***” indicates a value in the range of greater than 150 to 200) | > 6.30 | ** (The symbol “**” indicates a value in the range of greater than 90 to 150)
O=C(O)C1(C[C@H]2CN(S(=O)(=O)c3cccc(C(F)(F)F)c3)c3cc(-c4cccc(Cl)c4)ccc3O2)CCOCC1 [Compound 78A, (S)-4-((6-(3-chlorophenyl)-4-((3-(trifluoromethyl)phenyl)sulfonyl)-3,4-dihydro-2H-benzo[b][1,4]-oxazin-2-yl)methyl)tetrahydro-2H-pyran-4-carboxylic acid] | > 6.30 | ** (The symbol “**” indicates a value in the range of greater than 90 to 150) | > 6.30 | ** (The symbol “**” indicates a value in the range of greater than 90 to 150)
Cc1cc(Cl)cc(-c2ccc3c(c2)N(S(=O)(=O)c2cccc(C(F)(F)F)c2)C[C@H](CC2(C(=O)O)CCOCC2)O3)c1 [Compound 78B, (S)-4-((6-(3-chloro-5-methyl-phenyl)-4-((3-(trifluoromethyl)-phenyl)sulfonyl)-3,4-dihydro-2H-benzo[b][1,4]oxazin-2-yl)methyl)tetrahydro-2H-pyran-4-carboxylic acid] | > 6.30 | ** (The symbol “**” indicates a value in the range of greater than 90 to 150) | > 6.30 | ** (The symbol “**” indicates a value in the range of greater than 90 to 150)
